In brackets after ≈: the same amount, converted by molar mass. Activity calls are given as the source filed them. The calls are words filed in the database; no cut-off is given here.
Assays:
[1] = Inhibition of alpha glucosidase (unknown origin) at 100 uM preincubated for 15 mins followed by p-nitrophenyl-alpha-D-glucopyranoside addition measured after 30 mins by spectrophotometric analysis; conditions: Homo sapiens
[2] = Cytotoxicity against human HCT116 cells after 72 hrs by MTT assay; type: functional, cell-based; conditions: HCT-116, 72 h
[3] = Cytotoxicity against human BCG823 cells after 72 hrs by MTT assay; type: functional, cell-based; conditions: BCG823, 72 h
NCI-H1650 = assay: Cytotoxicity against human NCI-H1650 cells after 72 hrs by MTT assay; type: functional, cell-based; conditions: NCI-H1650, 72 h
[4] = Inhibition of alpha glucosidase (unknown origin) preincubated for 15 mins followed by p-nitrophenyl-alpha-D-glucopyranoside addition measured after 30 mins by spectrophotometric analysis; set-up: species or system Homo sapiens
Rattus norvegicus [5] = assay: Hypoglycemic activity in diabetic rat model assessed as decrease in blood glucose level at 360 mg/kg, ig administered for 12 days measured on sixth day of compound dosing by glucometer relative to control; type: functional; conditions: po, 288 h
[6] = Noncompetitive inhibition of alpha glucosidase (unknown origin) preincubated for 15 mins followed by p-nitrophenyl-alpha-D-glucopyranoside addition measured after 30 mins by Lineweaver-Burk plot analysis; set-up: species or system Homo sapiens
Rattus norvegicus [7] = assay: Hypoglycemic activity in diabetic rat model assessed as decrease in blood glucose level at 360 mg/kg, ig administered for 12 days measured on third day of compound dosing by glucometer relative to control; type: functional; conditions: po, 288 h
Rattus norvegicus [8] = assay: Hypoglycemic activity in diabetic rat model assessed as decrease in blood glucose level at 360 mg/kg, ig administered for 12 days measured on twelfth day by glucometer relative to control; type: functional; conditions: po, 288 h
Rattus norvegicus [9] = assay: Hypoglycemic activity in diabetic rat model assessed as decrease in blood glucose level at 360 mg/kg, ig administered for 12 days measured on ninth day of compound dosing by glucometer relative to control; type: functional; conditions: po, 288 h
Rattus norvegicus [10] = assay: Hypoglycemic activity in diabetic rat model assessed as decrease in blood glucose level at 20 mg/kg, ig administered for 12 days measured on twelfth day by glucometer relative to control; type: functional; conditions: po, 288 h
Rattus norvegicus [11] = assay: Hypoglycemic activity in diabetic rat model assessed as decrease in blood glucose level at 20 mg/kg, ig administered for 12 days measured on sixth day of compound dosing by glucometer relative to control; type: functional; conditions: po, 288 h
Rattus norvegicus [12] = assay: Hypoglycemic activity in diabetic rat model assessed as decrease in blood glucose level at 20 mg/kg, ig administered for 12 days measured on third day of compound dosing by glucometer relative to control; type: functional; conditions: po, 288 h
Rattus norvegicus [13] = assay: Hypoglycemic activity in diabetic rat model assessed as decrease in blood glucose level at 20 mg/kg, ig administered for 12 days measured on ninth day of compound dosing by glucometer relative to control; type: functional; conditions: po, 288 h
Rattus norvegicus [14] = assay: Hypoglycemic activity in diabetic rat model assessed as decrease in blood glucose level at 100 mg/kg, ig administered for 12 days measured on twelfth day by glucometer relative to control; type: functional; conditions: po, 288 h
Rattus norvegicus [15] = assay: Hypoglycemic activity in diabetic rat model assessed as decrease in blood glucose level at 100 mg/kg, ig administered for 12 days measured on ninth day of compound dosing by glucometer relative to control; type: functional; conditions: po, 288 h
Rattus norvegicus [16] = assay: Hypoglycemic activity in diabetic rat model assessed as decrease in blood glucose level at 100 mg/kg, ig administered for 12 days measured on sixth day of compound dosing by glucometer relative to control; type: functional; conditions: po, 288 h
Rattus norvegicus [17] = assay: Hypoglycemic activity in diabetic rat model assessed as decrease in blood glucose level at 100 mg/kg, ig administered for 12 days measured on third day of compound dosing by glucometer relative to control; type: functional; conditions: po, 288 h
Rattus norvegicus [18] = assay: Hypoglycemic activity in diabetic rat model assessed as blood glucose level at 360 mg/kg, ig administered for 12 days measured on day 12 by glucometer (reference value: 21.95 +/- 2.83 mmol/l); type: functional
Rattus norvegicus [19] = assay: Hypoglycemic activity in diabetic rat model assessed as blood glucose level at 360 mg/kg, ig administered for 12 days measured on day 9 of compound dosing by glucometer (reference value: 21.95 +/- 2.83 mmol/l); type: functional
Rattus norvegicus [20] = assay: Hypoglycemic activity in diabetic rat model assessed as blood glucose level at 360 mg/kg, ig administered for 12 days measured on day 6 of compound dosing by glucometer (reference value: 21.95 +/- 2.83 mmol/l); type: functional

| SMILES | inhibition [1] | IC50 [4] [µM] | IC50 [2] [µg/mL] | IC50 [3] [µg/mL] | IC50 (NCI-H1650) [µg/mL] | further results |
| --- | --- | --- | --- | --- | --- | --- |
| CCC1=C(C)CN(C(=O)NCCc2ccc(S(=O)(=O)NC(=O)N[C@H]3CC[C@H](C)CC3)cc2)C1=O [GLIMEPIRIDE] | – | – | – | – | – | inhibition in vivo at 20 mg/kg (Rattus norvegicus [10]): 7.86%; inhibition in vivo at 20 mg/kg (Rattus norvegicus [11]): 7.86%; inhibition in vivo at 20 mg/kg (Rattus norvegicus [12]): 7.86%; inhibition in vivo at 20 mg/kg (Rattus norvegicus [13]): 7.86% |
| CCOC(=O)C(C=O)c1ccc(C(F)(F)F)cc1 (configuration not stated) | inactive | – | > 0.01 | > 0.01 | > 0.01 | – |
| CCOC(=O)C(COC(=O)c1ccccc1OC(C)=O)c1ccc(F)cc1 (configuration not stated) | 15.8% | > 200 | > 0.01 | > 0.01 | > 0.01 | – |
| CN(C)C(=N)NC(=N)N [METFORMIN] | – | – | – | – | – | inhibition in vivo at 100 mg/kg (Rattus norvegicus [14]): 7.86%; inhibition in vivo at 100 mg/kg (Rattus norvegicus [15]): 7.86%; inhibition in vivo at 100 mg/kg (Rattus norvegicus [16]): 7.86%; inhibition in vivo at 100 mg/kg (Rattus norvegicus [17]): 7.86% |
| CCOC(=O)C(CO)c1ccc(C(F)(F)F)cc1 (configuration not stated) | inactive | – | > 0.01 | > 0.01 | > 0.01 | – |
| CCOC(=O)C(/C=N/OC)c1ccc(F)cc1 (configuration not stated) | inactive | – | > 0.01 | > 0.01 | > 0.01 | – |
| CCOC(=O)C(CO)c1ccc(F)cc1 (configuration not stated) | 19.2% | > 200 | > 0.01 | > 0.01 | > 0.01 | – |
| CCOC(=O)C(COC(=O)c1ccccc1)c1ccc(F)cc1 (configuration not stated) | 27.3% | > 200 | > 0.01 | > 0.01 | > 0.01 | – |
| COC(=O)C(CO)c1ccc(OC)cc1 (configuration not stated) | inactive | – | > 0.01 | > 0.01 | > 0.01 | – |
| COC(=O)C(C=O)c1ccccc1 (configuration not stated) | 15.3% | > 200 | > 0.01 | > 0.01 | > 0.01 | – |
| COC(=O)C(/C=N/NC(N)=S)c1ccc(OC)cc1 (configuration not stated) | 14.4% | > 200 | 0.0088 (≈ 0.0313 µM) | > 0.01 | 0.0025 (≈ 0.00889 µM) | – |
| COC(=O)C(CO)c1ccc(C)cc1 (configuration not stated) | 14.6% | > 200 | > 0.01 | > 0.01 | > 0.01 | Activity (Rattus norvegicus [18]): 21.4 mmol/L; inhibition in vivo at 360 mg/kg (Rattus norvegicus [7]): 7.86%; Activity (Rattus norvegicus [19]): 21.76 mmol/L; Activity (Rattus norvegicus [20]): 21.66 mmol/L |
| COC(=O)C(COC(=O)c1ccccc1)c1ccccc1 (configuration not stated) | 12.9% | > 200 | > 0.01 | > 0.01 | > 0.01 | – |
| COC(=O)C(COC(=O)/C=C/c1ccc(OC)c(OC)c1)c1ccccc1 (configuration not stated) | 11.1% | > 200 | > 0.01 | > 0.01 | > 0.01 | inhibition in vivo at 360 mg/kg (Rattus norvegicus [5]): 7.86%; Activity (Rattus norvegicus [18]): 20.76 mmol/L; inhibition in vivo at 360 mg/kg (Rattus norvegicus [7]): 7.86%; Activity (Rattus norvegicus [19]): 20.44 mmol/L |
| CCOC(=O)C(COC(=O)c1ccccc1)c1ccc(C(F)(F)F)cc1 (configuration not stated) | 16.8% | > 200 | > 0.01 | > 0.01 | > 0.01 | – |
| COC(=O)C(C=O)c1ccc(OC)cc1 (configuration not stated) | 18.4% | > 200 | > 0.01 | > 0.01 | > 0.01 | – |
| CCOC(=O)C(/C=N/OC)c1ccc(C(F)(F)F)cc1 (configuration not stated) | inactive | – | > 0.01 | > 0.01 | > 0.01 | – |

The next lines start with results.

| inhibition [1] | IC50 [4] [µM] | SMILES | IC50 [2] [µg/mL] | IC50 [3] [µg/mL] | IC50 (NCI-H1650) [µg/mL] | further results |
| --- | --- | --- | --- | --- | --- | --- |
| 19.8% | > 200 | COC(=O)C(/C=N/NC(N)=S)c1ccccc1 (configuration not stated) | 0.00321 (≈ 0.0128 µM) | 0.00818 (≈ 0.0325 µM) | 0.00325 (≈ 0.0129 µM) | – |
| 65.3% | 46.8 | CCOC(=O)C(/C=N/NC(N)=S)c1ccc(F)cc1 (configuration not stated) | 0.00191 (≈ 0.00674 µM) | 0.00727 (≈ 0.0257 µM) | 0.00198 (≈ 0.00699 µM) | inhibition in vivo at 360 mg/kg (Rattus norvegicus [5]): 7.86%; Ki [6]: 65.4 µM; inhibition in vivo at 360 mg/kg (Rattus norvegicus [7]): 10.3%; inhibition in vivo at 360 mg/kg (Rattus norvegicus [8]): 18.1%; inhibition in vivo at 360 mg/kg (Rattus norvegicus [9]): 16.9% |
| 47.8% | 83.8 | CCOC(=O)C(COC(=O)/C=C/c1ccc(OC)c(OC)c1)c1ccc(F)cc1 (configuration not stated) | > 0.01 | > 0.01 | > 0.01 | inhibition in vivo at 360 mg/kg (Rattus norvegicus [5]): 7.86%; inhibition in vivo at 360 mg/kg (Rattus norvegicus [7]): 7.86%; inhibition in vivo at 360 mg/kg (Rattus norvegicus [8]): 19%; inhibition in vivo at 360 mg/kg (Rattus norvegicus [9]): 7.86% |
| 14.1% | > 200 | CCOC(=O)C(COC(=O)c1ccccc1OC(C)=O)c1ccc(C(F)(F)F)cc1 (configuration not stated) | > 0.01 | > 0.01 | > 0.01 | – |
| 34% | 137 | CCOC(=O)C(/C=N/NC(N)=S)c1ccc(C(F)(F)F)cc1 (configuration not stated) | 0.00367 (≈ 0.011 µM) | > 0.01 | 0.00805 (≈ 0.0241 µM) | – |
| 20.8% | 190 | COC(=O)C(/C=N/NC(N)=S)c1ccc(C)cc1 (configuration not stated) | > 0.01 | 0.00522 (≈ 0.0197 µM) | 0.00534 (≈ 0.0201 µM) | – |
| 13.7% | > 200 | COC(=O)C(COC(=O)c1ccccc1OC(C)=O)c1ccccc1 (configuration not stated) | > 0.01 | > 0.01 | > 0.01 | – |
| 20.4% | 183 | CCOC(=O)C(C=O)c1ccc(F)cc1 (configuration not stated) | > 0.01 | > 0.01 | > 0.01 | – |
| 52.5% | 109 | OC[C@H]1NC[C@H](O)[C@@H](O)[C@@H]1O [DUVOGLUSTAT] | – | – | – | – |
| 29.3% | 185 | COC(=O)C(C=O)c1ccc(C)cc1 (configuration not stated) | > 0.01 | > 0.01 | > 0.01 | – |
| 28.7% | 186 | COC(=O)C(CO)c1ccccc1 (configuration not stated) | > 0.01 | > 0.01 | > 0.01 | – |
| 29.9% | 191 | CCOC(=O)C(COC(=O)/C=C/c1ccc(OC)c(OC)c1)c1ccc(C(F)(F)F)cc1 (configuration not stated) | > 0.01 | > 0.01 | > 0.01 | – |
